Assay results taken from article PMC9510826, “Catalytic promiscuity of O-methyltransferases from Corydalis yanhusuo leading to the structural diversity of benzylisoquinoline alkaloids” (Horticulture Research, 2022).

Target: T1, CyOMT2 (Corydalis yanhusuo, UniProt Z9M545XIG0, L253C)
T1 sequence (Z9M545XIG0 1-349 L253C): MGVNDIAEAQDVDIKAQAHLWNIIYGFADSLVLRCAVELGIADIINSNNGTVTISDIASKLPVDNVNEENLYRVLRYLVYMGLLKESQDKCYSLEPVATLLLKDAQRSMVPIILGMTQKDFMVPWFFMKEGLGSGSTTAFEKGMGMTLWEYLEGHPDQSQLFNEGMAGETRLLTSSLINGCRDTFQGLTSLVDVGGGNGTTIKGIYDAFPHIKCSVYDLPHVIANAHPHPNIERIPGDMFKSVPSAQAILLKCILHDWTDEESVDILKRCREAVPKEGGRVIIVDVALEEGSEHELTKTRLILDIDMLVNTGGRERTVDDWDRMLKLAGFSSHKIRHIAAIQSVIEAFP
Experiment: UPLC product quantification, Michaelis-Menten fit
Type: biochemical
Conditions: 200 μM SAM, 30 min
Source text: UPLC product quantification, Michaelis-Menten fit on CyOMT2

SMILES | Km (50 mM phosphate pH 7.0, 40°C) | Km (50 mM phosphate pH 7.5, 45°C)
COc1cc2c(cc1O)[C@@H]1Cc3ccc(OC)c(O)c3CN1CC2 [compound 15, scoulerine] | 12.2 ± 1.72 µM | –
Oc1ccc(C[C@@H]2NCCc3cc(O)c(O)cc32)cc1 [compound 1, norcoclaurine] | – | 19.4 ± 3.39 µM
COc1cc2c(cc1O)CC[n+]1cc3c(OC)c(OC)ccc3cc1-2 [compound 14, jatrorrhizine] | 34.8 ± 3.7 µM | –
